# US20240382497A1, “PROPHYLACTIC OR THERAPEUTIC AGENT FOR HYPOXIC INJURY, ISCHAEMIA-REPERFUSION INJURY AND INFLAMMATION, CELL PROTECTION AGENT FOR TRANSPLANTATION, AND BIO-PRESERVATION AGENT” (priority 2018, published 2024)
# Key:
# [1] = system: Trpa1 knockout and littermate hetero mice; experiment: Survival time in 4% oxygen of Trpa1 knockout mouse after odor presentation; type: in vivo; conditions: 271 μmol odor presented 10 min, versus saline
# Protocol: The thiazoline-related compound (2MT) was presented for 10 min to about 3-month-old male Trpa1 knockout and littermate hetero mice. Thereafter, the mice were placed in a tight box in which the oxygen concentration was adjusted to 4%, and the survival time of the mice was measured up to 30 min at maximum. The odor was presented by placing a filter paper scented with 271 μmol of 2MT in the breeding cage. As a control, an experiment presenting a filter paper dropped with saline was also performed (no odor).
# [2] = system: Male C57/BL6N mice; experiment: Skin blood flow on odor presentation (laser Doppler); type: in vivo, mouse; conditions: filter paper scented with 271 μmol odor, 20 min, versus no odor
# Protocol: An influence of a thiazoline-related compound and an odor molecule that induces learned fear on the skin blood flow was analyzed. Male C57/BL6N mice (about 3 months old) were anesthetized with pentobarbital (50 mg/kg, i.p.) about 5 days before the test, and the back hair was depilated with depilatory cream. A mouse restrainer having an observation window was prepared using a 50 ml tube, the mice were trained to enter the restrainer from the day after hair removal, and acclimated by performing this operation until the day before the test. On the day of testing, each mouse was placed in a restrainer, and a laser Doppler probe was attached to the shaved back of the mouse with an adhesive tape. After confirming that the blood flow signal became stable, (1) no odor was presented for 10 min, (2) Eugenol odor was presented for 10 min, (3) thiazoline-related compound (2MT) or an odor that induces learned fear (Anis-FS+) was presented for 20 min, and changes in the blood flow were measured. […] The blood flow rate was measured every 10 seconds using a laser Doppler blood flow meter (ADVANCE CO., LTD. ALF21D). The mean skin blood flow without odor (10 min) or with the presentation of a thiazoline-related compound or an odor that induces learned fear (20 min) was calculated, and the mean skin blood flow was shown as a relative value with the mean skin blood flow without odor as 100%.
# [3] = system: C57/BL6N male mice; experiment: Survival time in 4% oxygen after odor presentation; type: in vivo, mouse; conditions: odor 100 μl (104 mmol) presented 50 min before; measured up to 30 min; no odor controls all died within 20 min
# Protocol: (§1) About 3-month-old C57/BL6N male mice were each placed in a highly sealed breeding cage, and a filter paper scented with 100 μl (104 mmol) of the thiazoline-related compound (2MT) was placed in the breeding cage, and the odor was presented for 50 min. After the odor was presented, the mice were placed in a tight box in which the oxygen concentration was adjusted to 4%, and the survival time of the mice was measured up to 30 min at maximum. As a control, the survival time of mice presented with a filter paper dropped with water was also measured (no odor). Furthermore, changes in the core body temperature when the odor was presented under the same conditions as in this Example were measured by the same experimental method as in Example 4.
# [4] = system: cerebral ischemia-reperfusion injury model mouse; experiment: Cerebral ischemia-reperfusion injury, MAP2-unstained area; type: in vivo; conditions: about 80 mg/kg i.p. at the reperfusion, two days after reperfusion, versus saline
# Protocol: The bilateral common carotid arteries of about 3-month-old C57/BL6 mouse were ligated by clips to induce cerebral ischemia injury, and the blood was reperfused by removing the clips 30 min later. A thiazoline-related compound (2MT) solution (200 μl, about 80 mg/kg), or saline, as a control, was intraperitoneally administered at the reperfusion. Two days after the reperfusion, the brain tissue of the mouse was removed, brain sections were prepared, and the injured region was analyzed by antibody staining with Microtubule-associated protein 2 (MAP2).
# [5] = system: Trpa1 knockout mice and littermate hetero mice; experiment: Oxygen consumption on odor presentation, Trpa1 knockout and hetero mice; type: in vivo, mouse; conditions: two filter papers scented with 271 μmol
# Protocol: An influence of a thiazoline-related compound on the oxygen consumption was analyzed. The oxygen consumption was analyzed using an energy metabolism measurement device for small animals (ARCO-2000; ARCO SYSTEM). About 3-month-old C57/BL6N male mice were each placed in a measuring chamber and, after acclimation for about 2 hr, a thiazoline-related compound (2MT) was presented. The odors were presented by placing filter papers scented with 100 μl (104 mmol) of odor molecules in the measuring chamber. As a control, an experiment in which a filter paper dropped with saline was presented to the mice was also performed. The oxygen consumption was measured every one min. Mean oxygen consumption was calculated as the mean of 10 min before presenting odor and 20 min after presenting odor.
# The oxygen consumption was measured using an energy metabolism measurement device for small animals as in Example 8.About 3-month to 6-month-old Trpa1 knockout mice and littermate hetero mice were each placed in a measuring chamber of the energy metabolism measurement device for small animals and, after acclimation for about 2 hr, a thiazoline-related compound (2MT) was presented. The odor was presented by placing two filter papers scented with 271 μmol of thiazoline-related compound (2MT) in the measuring chamber.
# [6] = system: C57/BL6N male mice; experiment: Core body temperature under the odor conditions of Example 9; type: in vivo, mouse; conditions: odor presentation conditions of Example 9
# Protocol: An influence of a thiazoline-related compound and an odor molecule that induces learned fear on the core body temperature was analyzed. A radio-telemetry device for monitoring biological parameters (manufactured by Physiotel) was surgically implanted in the abdomen of male C57/BL6N mice (about 3 months old). The mice were subjected to the following experiment after about 10 days of recovery period. […] The information of body temperature was recorded every 10 sec using Dataquest A.R.T. software (DataScience international). The value of the core body temperature change was calculated as the difference between the mean core body temperature for 10 min when water was presented and the mean core body temperature for 20 min when each odor molecule was presented, and the change in the core body temperature without odor was set to 0. […]
# as §1, with “Furthermore, changes in the core body temperature when the odor was presented under the same conditions as in this Example were measured by the same experimental method as in Example 4.” left out
smiles,measurement,setting,value
"CC1=NCCS1 [2MT, 2-methyl-2-thiazoline]",survival time in 4% oxygen,[1],did not increase significantly
same,skin blood flow,[2],decreased the skin blood flow
same,survival time in 4% oxygen,[3],many individuals survived even after 30 min
same,area of the injured region of the brain (not stained with MAP2),[4],reduce cerebral ischemia-reperfusion injury
same,oxygen consumption per body weight,[5]; Trpa1 knockout mice (Trpa1−/−),the oxygen consumption did not decrease
same,oxygen consumption per body weight,[5]; control mice (Trpa1+/−),the oxygen consumption was decreased
same,core body temperature,[6],remarkable decrease in the core body temperature
